Source: the supplement of paper PMC13380429

Tests used:
Conditions in all cases: 72 h
Caco-2 [1] = test: cell viability relative to DMSO; higher = less toxic
Calu-3 [2] = test: as above
HepG2 [3] = test: as above
U2OS [4] = test: as above
Vero E6 [5] = test: as above
Caco-2 [6] = test: relative viability EC50 (midpoint between 100% and the lowest measured viability); higher = less toxic
Calu-3 [7] = test: as above
HepG2 [8] = test: as above
U2OS [9] = test: as above
Vero E6 [10] = test: as above
Caco-2 [11] = test: drug sensitivity score (DSS) for viability; higher = more toxic; extreme values may be limits of the assay
Calu-3 [12] = test: as above
HepG2 [13] = test: as above
U2OS [14] = test: as above
Vero E6 [15] = test: as above

SMILES	cell viability (Caco-2 [1]; 1 nM) [%]	cell viability (Caco-2 [1]; 10 nM) [%]	cell viability (Caco-2 [1]; 100 nM) [%]	cell viability (Caco-2 [1]; 1000 nM) [%]	cell viability (Caco-2 [1]; 10000 nM) [%]	cell viability (Calu-3 [2]; 1 nM) [%]	cell viability (Calu-3 [2]; 10 nM) [%]	cell viability (Calu-3 [2]; 100 nM) [%]	cell viability (Calu-3 [2]; 1000 nM) [%]	cell viability (Calu-3 [2]; 10000 nM) [%]	cell viability (HepG2 [3]; 1 nM) [%]	cell viability (HepG2 [3]; 10 nM) [%]	cell viability (HepG2 [3]; 100 nM) [%]	cell viability (HepG2 [3]; 1000 nM) [%]	cell viability (HepG2 [3]; 10000 nM) [%]	cell viability (U2OS [4]; 1 nM) [%]	cell viability (U2OS [4]; 10 nM) [%]	cell viability (U2OS [4]; 100 nM) [%]	cell viability (U2OS [4]; 1000 nM) [%]	cell viability (U2OS [4]; 10000 nM) [%]	cell viability (Vero E6 [5]; 1 nM) [%]	cell viability (Vero E6 [5]; 10 nM) [%]	cell viability (Vero E6 [5]; 100 nM) [%]	cell viability (Vero E6 [5]; 1000 nM) [%]	cell viability (Vero E6 [5]; 10000 nM) [%]	relative viability EC50 (Caco-2 [6]) [µM]	relative viability EC50 (Calu-3 [7]) [µM]	relative viability EC50 (HepG2 [8]) [µM]	relative viability EC50 (U2OS [9]) [µM]	relative viability EC50 (Vero E6 [10]) [µM]	drug sensitivity score (Caco-2 [11])	drug sensitivity score (Calu-3 [12])	drug sensitivity score (HepG2 [13])	drug sensitivity score (U2OS [14])	drug sensitivity score (Vero E6 [15])
CC(C)c1ccc(NC(=O)Cn2cnc3c2c(=O)n(C)c(=O)n3C)cc1	100	96	92.5	89.1	95.9	87	81.2	92.9	90	94.8	97.3	106	93.4	112	98.5	99.7	97.2	101	100	98.2	91.6	107	98.7	102	101	> 10	> 10	> 10	> 10	> 10	0	0	0	0	0
CN1CCC(COc2cnc(-c3cccc(Cn4nc(-c5cccc(C#N)c5)ccc4=O)c3)nc2)CC1	96.1	99.7	93.8	100	94.9	103	110	93.3	101	110	106	93.4	106	95.2	99.2	96.3	97.4	106	99	102	102	97.8	95.7	95.9	106	> 10	> 10	> 10	> 10	> 10	0	0	0	0	0
COCCN1CCN(Cc2ccc(-c3n[nH]c4c3C(=O)c3c(NC(=O)NN5CCOCC5)cccc3-4)cc2)CC1	97.9	102	91.1	49	55	105	109	86.5	39	55.8	107	99.8	51	15.4	11.3	102	107	94.5	9.8	19	97.8	102	98.2	13.1	12.5	0.186	0.165	0.0894	0.269	0.306	10.8	13.4	21.9	17.1	16
COc1ccccc1CC(=N)N1C[C@@H]2C(=O)CCC(c3ccccc3)(c3ccccc3)[C@@H]2C1	96.6	96.5	95.3	109	98.4	94.1	88.4	98.3	109	86.6	93	95.9	88.2	106	105	103	95.1	101	101	93.8	94.3	101	94.7	95.9	110	> 10	> 10	> 10	> 10	> 10	0	0	0	0	0
C[C@@H](N)[C@H]1CC[C@H](C(=O)Nc2ccncc2)CC1	101	95.3	96.2	104	108	84.6	97.2	104	114	122	97.8	96.8	95.2	84.5	99.3	99	102	91.1	102	92	97.8	99.1	96.4	93.7	92.2	> 10	> 10	> 10	> 10	> 10	0	0	0	0	0
Cc1cc(-c2cc(OC(=O)c3ccccc3)ccc2Cl)cc2nnc(Nc3ccc(OCCN4CCCC4)cc3)nc12	98.1	95.6	99	93	116	102	115	90.9	102	104	108	107	95.2	89	107	98.3	99	101	100	102	98.4	97.3	97.2	96.9	112	> 10	> 10	> 10	> 10	> 10	0	0	0	0	0
Cc1cc(NCCO)nc(-c2ccc(Br)cc2)n1	95.3	91.8	104	93.1	97	105	87.6	99.5	109	98.1	97.4	98.9	86.9	95.8	94.3	99.5	100	99.7	95.8	99.7	102	101	93.1	93.9	84.6	> 10	> 10	> 10	> 10	> 10	0	0	0	0	0.3
Cc1ccc(CC2(O)CCN(CCOc3ccc(O)cc3)CC2)cc1	103	101	95.5	91.7	92.2	110	96.5	91.7	95.9	96.9	100	90.4	108	90.3	84.6	100	96.8	97.8	97.1	99.7	103	101	99.4	99.6	93.1	> 10	> 10	> 10	> 10	> 10	0	0	1	0	0
Cc1ccc(Sc2cncc3sc(C(N)=O)cc23)cc1	97.7	92.1	96.5	89.2	90.8	95.7	102	89.6	90.9	80.6	94.4	105	86.7	87.6	87.7	100	97.5	110	108	113	94.3	98.3	82	91.4	98.1	> 10	> 10	> 10	> 10	> 10	0	1.2	1.6	0	0
NC1CCN(c2cccc(Cl)n2)CC1	95.9	97	96.6	103	96.5	89.4	93	99.5	87.9	102	94.8	100	102	111	101	101	101	101	102	95.2	101	100	94.3	96	96.2	> 10	> 10	> 10	> 10	> 10	0	0	0	0	0
C#C[C@]1(O)CC[C@H]2[C@@H]3CCC4=CC(=NO)CC[C@@H]4[C@H]3CC[C@@]21CC (mixture of isomers) [norelgestromin]	89	94.1	91.7	98.3	98.5	102	95.2	103	93.5	101	95.9	101	105	108	110	99.1	101	94.4	101	98.6	102	101	92	99.1	103	> 10	> 10	> 10	> 10	> 10	0	0	0	0	0
CSc1ccc([C@H]2CN3CCC[C@H]3c3ccccc32)cc1 (racemic) [McN-5652-(+/-)]	92.2	100	96.1	103	98.7	102	101	106	84.9	105	102	89.9	98.5	90.3	105	97.8	105	96.8	105	102	99.6	102	102	96.3	104	> 10	> 10	> 10	> 10	> 10	0	0	0	0	0
O=C(O)/C=C1\CCCc2ccccc2[C@H]1O (racemic) [NCS-382]	98.6	99.3	91.8	97	88.7	93.4	95.3	99.3	95.5	101	108	96.5	102	99.1	87.2	96.7	102	96	102	97.2	104	97.2	103	99.1	101	> 10	> 10	> 10	> 10	> 10	0	0	0.1	0	0
OC[C@H]1NC[C@@H](O)[C@@H](O)[C@@H]1O [1-deoxymannojirimycin]	95.3	96.8	98.2	97	104	106	96.8	97	95.4	90.8	109	96.2	94.5	93.1	97.7	96.8	102	95.8	100	108	99.1	93	98.2	96.8	107	> 10	> 10	> 10	> 10	> 10	0	0	0	0	0
